# Measured values published in patent US20180339016A1 (priority 2015, published 2018).
# Several values for one entry are separate records, joined by “and”; a condition that tells them apart may be missing. Equal values may be shown once. Read-outs that look alike come from different tables or passages of the source.
# Assays:
# [1] = system: Escherichia coli (ATCC 25922); conditions: peptide alone; peptide concentration required to inhibit growth by 20% (so in the source)
# Method: (§1) The N-terminus of the peptides were acetylated and the C-terminus was amidated. The kinked structure can rapidly reduce the alpha-helical content, thereby greatly reducing the toxicity of the peptide against host cells. In addition, because of the potential to show specificity for the Gram-negative bacterial membrane, Pro-mutants were prepared by site-directed mutagenesis. Using the prepared peptides, their MIC for the Gram-negative bacterium E. coli and the Gram-positive bacterium S. aureus and their hemolytic activity for host cells were examined (Table 1).
# (§2) To measure the synergy between the membrane-activating peptides and the repositioning drug, a 10× compound was prepared, and then serially diluted ⅔-fold with distilled water. An MH broth (900 μl) was added to and mixed with the 10× compound (100 μl), and then 200 μL of the mixture was taken and added to a 96-well plate. E. coli cultured for one day was adjusted to 0.5 MCF using MCFarland, and diluted 10-fold, and then 10 μl of the dilution was added to each well of the plate (5×10^5 CFU/mL). After addition of the bacterial cells, plate was incubated at 37° C. for 18 hours, and then the OD value at UV-Vis (600 nm) was measured. Cell viability (%)=(OD600 of sample−OD600 of negative control)/(OD600 of positive control−OD600 of negative control)×100.
# [2] = system: Staphylococcus aureus (ATCC 29213); assay: MIC of peptide against S. aureus; assay type: cell-based; conditions: peptide alone
# Method: as §1
# [3] = system: E. coli ATCC 25922; assay: Antibiotic interaction assay (Wimley), 2/3 broth microdilution: MIC alone, MIC of combination, FICI; assay type: cell-based; conditions: for MIC of combination (μM): antibiotic (colistin): colistin concentration in combination with labelled peptide; for MIC of peptide: peptide alone
# Method: Synergy was evaluated by an antibiotic interaction assay (Wimley, 2015) Using the method of Wimley (BBA, 2015, v. 1848(1), pp. 8-15), synergy between the membrane-activating peptide and an antibiotic was measured by an FICI value (FIG. 17). […] Thus, to accurately examine synergy, a ⅔ dilution method which observes MIC at denser concentration intervals is advantageous over a ½ dilution method in statistical terms. […] In the same manner, the MIC of an antibiotic or repositioning drug (second line) is measured. In the third line, the two compounds are mixed after putting half amount each, and the MIC thereof is measured.
# A broth microdilution technique (⅔ dilution) was used together with an MH broth. E. coli treated with an antibiotic and the peptide was incubated in a 37° C. incubator for 18 hours.
# as §2
# [4] = system: E. coli ATCC 25922; conditions: for Fractional Inhibitory Concentration Index (FICI), Colistin & 1 μM peptide / MIC (μM) against E. coli ATCC 25922, Peptide alone: Table 4; for MIC (μM) against E. coli ATCC 25922, Peptide alone: bacterial growth <10% of control
# [5] = labelled peptide + colistin + linezolid
# [6] = three compounds: labelled peptide + colistin + linezolid
# [7] = Table 13, Lys-Ala scanning library
# [8] = peptide concentration in combination with colistin
substance,measurement,setting,value
LKKLPKLLKKPLKL [LK-L5PL11P],MIC [μM] Against E. coli,[1],40 µM
same,MIC [μM] Against S. aureus,[2],>40 µM
LKKLLKPPKKLLKL [LK-L7PL8P],MIC [μM] Against E. coli,[1],40 µM
same,MIC of combination (μM): antibiotic (colistin),[3],0.09 µM
same,FICI of peptide with colistin,[3]; labelled peptide + colistin,0.3 and 0.34
same,FICIPeptide,[3]; labelled peptide + colistin,0.16
same,FICIcolistin / FICIantibiotic,[3]; labelled peptide + colistin,0.18
same,FICI of peptide with colistin and linezolid,[3]; [5],0.27
same,FICIPeptide,[3]; [5],0.07
same,FICIcolistin,[3]; [5],0.09
same,FICIlinezolid,[3]; [5],0.11
same,FICI of peptide with linezolid,[3]; labelled peptide + linezolid,0.53
same,FICIPeptide,[3]; labelled peptide + linezolid,0.26
same,FICIlinezolid,[3]; labelled peptide + linezolid,0.27
same,FICI of peptide with linezolid,"[3]; labelled peptide + linezolid, listed as LK-L7P/L8P",about 0.53
same,MIC of combination (μM): linezolid,[3]; linezolid concentration in combination with labelled peptide,22 µM
same,MIC of peptide,[3],53 µM
same,MIC of combination (μM): peptide,[3]; peptide concentration in combination with linezolid,14 µM
same,MIC of combination (μM): colistin,[3]; [6],0.040 µM
same,MIC of combination (μM): linezolid,[3]; [6],5.9 µM
same,MIC of combination (μM): peptide,[3]; [6],4.7 µM
same,MIC [μM] Against S. aureus,[2],>40 µM
KLPKLLKKLLKLLK [KL-L3P],MIC [μM] Against E. coli,[1],10 µM
same,MIC [μM] Against S. aureus,[2],20 µM
KLLKLLKKLPKLLK [KL-L10P],MIC [μM] Against E. coli,[1],2.5 µM
same,MIC [μM] Against S. aureus,[2],20 µM
LKKPLKLLKKLLKL [LK-L4P],MIC [μM] Against E. coli,[1],5 µM
same,MIC [μM] Against S. aureus,[2],40 µM
KLLKLLKKPLKALK [KL-L9PL12A],MIC [μM] Against E. coli,[1],40 µM
same,"FICI Against E. coli, Colistin & 1/2 MIC peptide","[4]; Table 15, Leu-Ala scanning",0.74
same,"FICI Against E. coli, Colistin & 1/4 MIC peptide","[4]; Table 15, Leu-Ala scanning",0.61
KLLALLKKPLKLLK [KL-L9P/K4A],"FICI Against E. coli, Colistin & 1/2 MIC peptide",[4]; [7],0.79
LKKLLKPLKKLLKL [LK-L7P],MIC [μM] Against E. coli,[1],2.5 µM
same,MIC [μM] Against S. aureus,[2],20 µM
KLLKLLKKPLALLK [KL-L9P/K11A],"FICI Against E. coli, Colistin & 1/2 MIC peptide",[4]; [7],1.25
LKKLLPLLKKLLKL [LK-K6P],MIC [μM] Against E. coli,[1],2.5 µM
same,MIC [μM] Against S. aureus,[2],5.0 µM
KLLKLLKKLLKPLK [KL-L12P],MIC [μM] Against E. coli,[1],2.5 µM
same,MIC [μM] Against S. aureus,[2],20 µM
KLLKLLKKPLKLAK [KL-L9PL13A],MIC [μM] Against E. coli,[1],40 µM
same,increase of FICI value with colistin when peptide changed from 1/4 MIC to 1/2 MIC,[4],0.29
same,"FICI Against E. coli, Colistin & 1/2 MIC peptide","[4]; Table 15, Leu-Ala scanning",0.80
same,"FICI Against E. coli, Colistin & 1/4 MIC peptide","[4]; Table 15, Leu-Ala scanning",0.51
KLLKPLKKLLKLLK [KL-L5P],MIC [μM] Against E. coli,[1],5.0 µM
same,MIC [μM] Against S. aureus,[2],20 µM
Ac-KLLKALKKPLKLLK-NH2 [KL-L5AL9P],MIC [μM] Against E. coli,[1],18 µM
same,increase of FICI value with colistin when peptide changed from 1/4 MIC to 1/2 MIC,[4],0.37
same,"FICI Against E. coli, Colistin & 1/2 MIC peptide","[4]; Table 15, Leu-Ala scanning",0.86
same,"FICI Against E. coli, Colistin & 1/4 MIC peptide","[4]; Table 15, Leu-Ala scanning",0.49
LKKLLKLLPKLLKL [LK-K9P],MIC [μM] Against E. coli,[1],5.0 µM
same,MIC [μM] Against S. aureus,[2],5.0 µM
KLAKLLKKPLKLLK [KL-L3AL9P],MIC [μM] Against E. coli,[1],27 µM
same,"FICI Against E. coli, Colistin & 1/2 MIC peptide","[4]; Table 15, Leu-Ala scanning",0.70
same,"FICI Against E. coli, Colistin & 1/4 MIC peptide","[4]; Table 15, Leu-Ala scanning",0.55
KLLKLLKKPAKLLK [KL-L9PL10A],MIC [μM] Against E. coli,[1],40 µM
same,increase of FICI value with colistin when peptide changed from 1/4 MIC to 1/2 MIC,[4],0.31
same,"FICI Against E. coli, Colistin & 1/2 MIC peptide","[4]; Table 15, Leu-Ala scanning",0.80
same,"FICI Against E. coli, Colistin & 1/4 MIC peptide","[4]; Table 15, Leu-Ala scanning",0.49
KPLKLLKKLLKLLK [KL-L2P],MIC [μM] Against E. coli,[1],5 µM
same,MIC [μM] Against S. aureus,[2],20 µM
KLLKLLKKPLKLLA [KL-L9P/K14A],"FICI Against E. coli, Colistin & 1/2 MIC peptide",[4]; [7],0.66
KLLKLLKKLLKLPK [KL-L13P],MIC [μM] Against E. coli,[1],5 µM
same,MIC [μM] Against S. aureus,[2],10 µM
LKKPLKLLKKPLKL [LK-L4PL11P],MIC [μM] Against E. coli,[1],>40 µM
same,MIC [μM] Against S. aureus,[2],>40 µM
LKKLLKPLKKPLKL [LK-L7PL11P],MIC [μM] Against E. coli,[1],20 µM
same,MIC [μM] Against S. aureus,[2],>40 µM
LKKPPKLLKKLLKL [LK-L4PL5P],MIC [μM] Against E. coli,[1],5 µM
same,MIC [μM] Against S. aureus,[2],>40 µM
LKKLLKLLKKPLKL [LK-L11P],MIC [μM] Against E. coli,[1],5 µM
same,"Fractional Inhibitory Concentration Index (FICI), Colistin & 1 μM peptide",[4],"0.83, Synergism"
same,"MIC (μM) against E. coli ATCC 25922, Peptide alone",[4],3 µM
same,MIC [μM] Against S. aureus,[2],>40 µM
KLLKLPKKLLKLLK [KL-L6P],MIC [μM] Against E. coli,[1],10 µM
same,"Fractional Inhibitory Concentration Index (FICI), Colistin & 1 μM peptide",[4],"0.83, Synergism"
same,"MIC (μM) against E. coli ATCC 25922, Peptide alone",[4],3 µM
same,MIC [μM] Against S. aureus,[2],>40 µM
KLLKLLKPLLKLLK [KL-K8P],MIC [μM] Against E. coli,[1],2.5 µM
same,MIC [μM] Against S. aureus,[2],5.0 µM
KLLKLLKKLLKLLK,MIC [μM] Against E. coli,[1],20 µM
same,MIC [μM] Against S. aureus,[2],20 µM
LKKLLKLLKKLLKL,MIC [μM] Against E. coli,[1],20 µM
same,MIC [μM] Against S. aureus,[2],20 µM
LKKLLKLPKKPLKL [LK-L8PL11P],MIC [μM] Against E. coli,[1],40 µM
same,MIC [μM] Against S. aureus,[2],>40 µM
ALLKLLKKPLKLLK [KL-L9P/K1A],"FICI Against E. coli, Colistin & 1/2 MIC peptide",[4]; [7],0.71
KALKLLKKPLKLLK [KL-L2AL9P],MIC [μM] Against E. coli,[1],40 µM
same,"FICI Against E. coli, Colistin & 1/2 MIC peptide","[4]; Table 15, Leu-Ala scanning",0.74
same,"FICI Against E. coli, Colistin & 1/4 MIC peptide","[4]; Table 15, Leu-Ala scanning",0.61
LKKLPKLLKKLLKL [LK-L5P],MIC [μM] Against E. coli,[1],5.0 µM
same,MIC [μM] Against S. aureus,[2],20 µM
"KLLKLLCKLCKLLK [7, 10 kink]",MIC [μM] Against E. coli,[1],1.1 µM
same,MIC of combination (μM): antibiotic (colistin),[3],0.081 µM
same,FICI of peptide with colistin,[3]; labelled peptide + colistin,0.89
same,FICIPeptide,[3]; labelled peptide + colistin,0.58
same,FICIcolistin / FICIantibiotic,[3]; labelled peptide + colistin,0.31
same,FICI of peptide with colistin and linezolid,[3]; [5],1.1
same,FICIPeptide,[3]; [5],0.37
same,FICIcolistin,[3]; [5],0.33
same,FICIlinezolid,[3]; [5],0.37
same,MIC of peptide,[3],1.1 µM
same,MIC of combination (μM): peptide,[3]; [8],0.63 µM
same,MIC of combination (μM): colistin,[3]; [6],0.081 µM
same,MIC of combination (μM): linezolid,[3]; [6],22 µM
same,MIC of combination (μM): peptide,[3]; [6],0.44 µM
LKKLPKLPKKLLKL [LK-L5PL8P],MIC [μM] Against E. coli,[1],20 µM
same,MIC [μM] Against S. aureus,[2],>40 µM
LKKLLKLLKKPPKL [LK-L11PL12P],MIC [μM] Against E. coli,[1],2.5 µM
same,MIC [μM] Against S. aureus,[2],>40 µM
KLLKLLPKLLKLLK [KL-K7P],MIC [μM] Against E. coli,[1],2.5 µM
same,MIC [μM] Against S. aureus,[2],5.0 µM
LKKPLKLPKKLLKL [LK-L4PL8P],MIC [μM] Against E. coli,[1],40 µM
same,MIC [μM] Against S. aureus,[2],>40 µM
KLLKLLAKPLKLLK [KL-L9P/K7A],"FICI Against E. coli, Colistin & 1/2 MIC peptide",[4]; [7],0.86
"KLR8KLLKKPLS5LLK [st 3, 11]",MIC [μM] Against E. coli,[1],2.5 µM
same,MIC of combination (μM): antibiotic (colistin),[3],0.12 µM
same,FICI of peptide with colistin,[3]; labelled peptide + colistin,0.86
same,FICIPeptide,[3]; labelled peptide + colistin,0.59
same,FICIcolistin / FICIantibiotic,[3]; labelled peptide + colistin,0.27
same,FICI of peptide with colistin and linezolid,[3]; [5],0.70
same,FICIPeptide,[3]; [5],0.11
same,FICIcolistin,[3]; [5],0.25
same,FICIlinezolid,[3]; [5],0.33
same,MIC of peptide,[3],2.5 µM
same,MIC of combination (μM): peptide,[3]; [8],0.61 µM
same,MIC of combination (μM): colistin,[3]; [6],0.060 µM
same,MIC of combination (μM): linezolid,[3]; [6],15 µM
same,MIC of combination (μM): peptide,[3]; [6],0.30 µM
LKKLLKLLKPLLKL [LK-K10P],MIC [μM] Against E. coli,[1],5.0 µM
same,MIC [μM] Against S. aureus,[2],5.0 µM
KLLKLLKAPLKLLK [KL-L9P/K8A],"FICI Against E. coli, Colistin & 1/2 MIC peptide",[4]; [7],0.97
